From article PMC6832952, “Synthesis and Evaluation of Pyrimidine Steroids as Antiproliferative Agents” (Molecules, 2019)
Read-outs that look alike come from different tables or passages of the source.

Columns and labels:
[1] = Solubility under protocol conditions; assay type: physicochemical; settings: growth inhibition protocol conditions
Source text: (§1) We studied the antiproliferative activity of α,β-unsaturated ketones (2 and 6) and steroidal pyrimidines (3 and 7) against human cell lines following the guidelines of the National Cancer Institute. For the tests we selected five human solid tumor cell lines from diverse origins and one human fibroblast cell line as a model of non-tumor cells. These cell lines were chosen as representative of drug sensitive (A549, HBL-100, and HeLa) and drug resistant (T-47D and WiDr) monolayer cultures based on previous studies. The steroidal anticancer drugs abiraterone and galeterone were also tested for comparison purposes. […] This is a relevant finding, since our compounds are non-toxic to healthy cells, whilst the steroidal anticancer drugs inhibit the growth of fibroblasts at GI50 values as low as 4.5–5 µM.
The following densities (cells per well) were used: 2500 (A549, HBL-100, HeLa and SW1573), 5000 (T-47D, WiDr and SW1573/PGP), and 7000 (BJ-hTERT). […] Abiraterone and galeterone were used as reference drugs for antiproliferative tests, verapamil was used as a P-gp transport inhibitor in SW1573/Pgp experiments, and their stock solutions were prepared in DMSO at 40 mM. Paclitaxel and vinblastine were used as positive controls in SW1573/Pgp experiments and were initially dissolved in DMSO at 4 mM. […] For each product GI50 values were calculated according to the NCI formulas.

[2] = tested on: HBL-100 (breast) cells; assay: Growth inhibition assay (NCI protocol), HBL-100; assay type: cell-based, human; settings: Homo sapiens, HBL-100; 48 h exposure
Source text: as §1
(§2) The following densities (cells per well) were used: 2500 (A549, HBL-100, HeLa and SW1573), 5000 (T-47D, WiDr and SW1573/PGP), and 7000 (BJ-hTERT). […] Abiraterone and galeterone were used as reference drugs for antiproliferative tests, verapamil was used as a P-gp transport inhibitor in SW1573/Pgp experiments, and their stock solutions were prepared in DMSO at 40 mM. Paclitaxel and vinblastine were used as positive controls in SW1573/Pgp experiments and were initially dissolved in DMSO at 4 mM. For each test compound, the cells were exposed to serial decimal dilutions in the range of 0.001–100 μM for a period of 48 h. Cell culture medium containing verapamil was prepared by adding the final concentration of verapamil of 10 μM. For each product GI50 values were calculated according to the NCI formulas.

[3] = tested on: HeLa (cervix) cells; assay: Growth inhibition assay (NCI protocol), HeLa; assay type: cell-based, human; settings: Homo sapiens, HeLa; 48 h exposure
Source text: as §1, §2

[4] = tested on: T-47D (breast) cells; assay: Growth inhibition assay (NCI protocol), T-47D; assay type: cell-based, human; settings: Homo sapiens, T47D; 48 h exposure
Source text: as §1, §2

[5] = tested on: BJ-hTERT human fibroblast cells; assay: Growth inhibition assay (NCI protocol), BJ-hTERT fibroblasts; assay type: cell-based; settings: Homo sapiens, Fibroblast; 48 h exposure; non-tumor cells
Source text: as §1, §2

[6] = tested on: A549 (non-small cell lung) cells; assay: Growth inhibition assay (NCI protocol), A549; assay type: cell-based, human; settings: Homo sapiens, A549; 48 h exposure
Source text: as §1, §2

[7] = tested on: P-gp; assay: in vitro; settings: human
Source text: (§3) Next, we studied if the compounds could be substrates for P-glycoprotein 1 (P-gp). P-gp is an important protein of the cell membrane that pumps xenobiotics out of cells. One of the resistance mechanisms to anticancer drugs involves the overexpression of P-gp by cancer cells, rendering these cancers multidrug resistant. Therefore, it is relevant to know whether compounds are substrates for P-gp or not. As a model to test the effect of P-gp overexpression in our compounds, we used a cell line-based assay. We selected one wild type human lung cancer cell line (SW1573) and its P-gp overexpressing variant (SW1573/PGP). In this test, cells were exposed to the compounds for 48 h in the absence or the presence of 10 µM verapamil, a well-known P-gp inhibitor [20].
(§4) The human solid tumor cell lines A549 (non-small cell lung), HBL-100 (breast), and HeLa (cervix), SW1573 (non-small cell lung), and its P-gp overexpressing variant (SW1573/Pgp), T-47D (breast), and WiDr (colon) were used in this study. These cell lines used in this study were kindly provided by Dr. Godefridus J. Peters (Cancer Center Amsterdam, Vrije Universiteit, Amsterdam, The Netherlands). BJ-hTERT human fibroblast cells were given by Dr. Raimundo Freire (Universidad de La Laguna, Canary Islands). All cells were grown in RPMI 1640 supplemented with 1 mM glutamine, 5% FBS and antibiotics. Cells were grown at 37 °C in a humidified atmosphere of 5% CO2 and maintained at low passage.
(§5) The antiproliferative activity was tested in vitro against human cancer cells using the protocol of the National Cancer Institute (NCI) of the USA16 with minor modifications. The following densities (cells per well) were used: 2500 (A549, HBL-100, HeLa and SW1573), 5000 (T-47D, WiDr and SW1573/PGP), and 7000 (BJ-hTERT). Samples for testing were dissolved initially in DMSO at 40 mM, i.e., 400 times the maximum test concentration. Abiraterone and galeterone were used as reference drugs for antiproliferative tests, verapamil was used as a P-gp transport inhibitor in SW1573/Pgp experiments, and their stock solutions were prepared in DMSO at 40 mM. Paclitaxel and vinblastine were used as positive controls in SW1573/Pgp experiments and were initially dissolved in DMSO at 4 mM. For each test compound, the cells were exposed to serial decimal dilutions in the range of 0.001–100 μM for a period of 48 h. Cell culture medium containing verapamil was prepared by adding the final concentration of verapamil of 10 μM. For each product GI50 values were calculated according to the NCI formulas.

[8] = molecular target: T1, P-glycoprotein 1 (P-gp) (Homo sapiens, UniProt P08183); assay: P-glycoprotein assay (SW1573/PGP vs SW1573, resistance factor); assay type: cell-based; settings: ratio between GI50 values in SW1573/PGP and SW1573 cells; for Rf w Verapamil: with 10 µM verapamil; for Rf w/o Verapamil: without verapamil
T1 construct: its P-gp overexpressing variant (SW1573/PGP); endogenous in cells; host or cells: SW1573 and SW1573/PGP (SW1573/Pgp) human non-small cell lung cancer cells, provided by Dr. G. J. Peters (Amsterdam)
T1 sequence (P08183 whole entry): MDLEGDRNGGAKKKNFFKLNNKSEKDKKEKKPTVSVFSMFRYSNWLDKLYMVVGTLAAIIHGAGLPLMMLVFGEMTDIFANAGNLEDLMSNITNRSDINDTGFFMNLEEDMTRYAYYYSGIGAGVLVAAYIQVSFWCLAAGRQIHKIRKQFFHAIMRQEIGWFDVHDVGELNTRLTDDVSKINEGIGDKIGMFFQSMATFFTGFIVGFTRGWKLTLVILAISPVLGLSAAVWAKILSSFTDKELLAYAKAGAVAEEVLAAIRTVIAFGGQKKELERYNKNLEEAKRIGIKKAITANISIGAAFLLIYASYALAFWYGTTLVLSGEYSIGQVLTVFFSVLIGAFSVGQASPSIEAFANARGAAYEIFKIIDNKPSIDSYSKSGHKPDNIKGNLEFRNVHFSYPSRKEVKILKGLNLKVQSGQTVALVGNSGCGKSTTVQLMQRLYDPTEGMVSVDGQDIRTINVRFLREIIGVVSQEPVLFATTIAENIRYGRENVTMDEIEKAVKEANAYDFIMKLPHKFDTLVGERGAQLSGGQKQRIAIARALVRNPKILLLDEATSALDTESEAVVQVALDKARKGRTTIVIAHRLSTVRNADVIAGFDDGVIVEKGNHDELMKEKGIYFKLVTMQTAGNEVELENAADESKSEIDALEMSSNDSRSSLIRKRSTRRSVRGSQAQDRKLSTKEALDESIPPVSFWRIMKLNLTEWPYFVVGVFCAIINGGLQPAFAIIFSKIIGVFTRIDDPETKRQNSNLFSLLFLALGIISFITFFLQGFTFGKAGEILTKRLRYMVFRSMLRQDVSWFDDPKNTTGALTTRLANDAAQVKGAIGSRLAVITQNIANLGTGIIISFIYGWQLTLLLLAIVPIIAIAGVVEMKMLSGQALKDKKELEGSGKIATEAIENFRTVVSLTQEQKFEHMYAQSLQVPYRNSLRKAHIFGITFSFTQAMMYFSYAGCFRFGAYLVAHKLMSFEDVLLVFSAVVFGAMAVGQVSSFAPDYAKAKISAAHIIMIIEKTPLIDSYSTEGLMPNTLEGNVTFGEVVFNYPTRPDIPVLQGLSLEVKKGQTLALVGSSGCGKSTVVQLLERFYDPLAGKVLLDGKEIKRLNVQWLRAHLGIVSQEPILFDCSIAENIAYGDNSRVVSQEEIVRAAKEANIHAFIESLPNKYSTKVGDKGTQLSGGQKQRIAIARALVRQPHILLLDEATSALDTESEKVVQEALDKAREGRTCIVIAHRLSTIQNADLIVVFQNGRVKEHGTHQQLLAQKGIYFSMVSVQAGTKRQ
Source text: as §3, §5

[9] = tested on: WiDr (colon) cells; assay: Growth inhibition assay (NCI protocol), WiDr; assay type: cell-based, human; settings: Homo sapiens, WiDr; 48 h exposure
Source text: as §1, §2

[10] = tested on: SW1573 (non-small cell lung) cells; assay: Growth inhibition assay, SW1573 wild type; assay type: cell-based, human; settings: Homo sapiens, SW1573, 48 h, without verapamil, read-out: GI50 SW1573 w/o Verapamil
Source text: as §3, §4, §5

[11] = tested on: human solid tumor cell lines; assay: Antiproliferative activity against the panel of human solid tumor cell lines; assay type: cell-based; settings: A549, HBL-100, HeLa, T-47D, WiDr, read-out: GI50 range against all tumor cells
Source text: as §4
The antiproliferative activity was tested in vitro against human cancer cells using the protocol of the National Cancer Institute (NCI) of the USA16 with minor modifications. The following densities (cells per well) were used: 2500 (A549, HBL-100, HeLa and SW1573), 5000 (T-47D, WiDr and SW1573/PGP), and 7000 (BJ-hTERT). Samples for testing were dissolved initially in DMSO at 40 mM, i.e., 400 times the maximum test concentration. […] For each product GI50 values were calculated according to the NCI formulas.

GI50 ([10]; reference drugs PTX and VB) [µM] | SMILES | melting point [°C] | solubility under protocol conditions [1] | GI50 [2] [µM] | GI50 [3] [µM] | GI50 [4] [µM] | GI50 [5] [µM] | GI50 [6] [µM] | GI50 at 48 h [7] [µM] | Rf w Verapamil [8] | Rf w/o Verapamil [8] | GI50 [9] [µM] | GI50 [10] [µM] | GI50 [11] [µM]
– | CC1=C2C(CC3C4CC=C5C[C@@H](O)CC[C@]5(C)C4CC[C@]23C)NC(=N)N1 (stereo partly drawn) [Compound 7a, 1′,3′-dihydro-2′-imino-4′-methylpyrimidin-(6′,5′:16,17)-androst-5-en-3β-ol] | 108 to 110 | poor solubility | – | – | – | – | – | – | – | – | – | – | –
– | CC1=C2C(CC3C4CC=C5C[C@@H](O)CC[C@]5(C)C4CC[C@]23C)NC(=O)N1 (stereo partly drawn) [Compound 7b, 1′,3′-dihydro-4′-methyl-2′-oxopyrimidin-(6′,5′:16,17)-androst-5-en-3β-ol] | 163 to 164 | – | 15 ± 3.2 | 3.4 ± 0.2 | 15 ± 1.9 | > 100 | 13 ± 3.7 | 49 ± 4.4 | 1.4 | 1.5 | 18 ± 1.8 | 34 ± 4.7 | –
– | CC1=C2C(CC3C4CC=C5C[C@@H](O)CC[C@]5(C)C4CC[C@]23C)NC(=S)N1 (stereo partly drawn) [Compound 7c, 1′,3′-dihydro-4′-methyl-2′-thionepyrimidin-(6′,5′:16, 17)-androst-5-en-3β-ol] | 208 to 210 | – | 3.7 ± 1 | 2.6 ± 0.7 | 3 ± 0.5 | > 100 | 3.4 ± 0.5 | 16 ± 1.3 | 1.1 | 1.7 | 3.1 ± 0.4 | 9.4 ± 1 | 2.6 to 3.7
– | C[C@]12CC[C@H](O)CC1=CC[C@@H]1[C@@H]2CC[C@]2(C)C(n3cnc4ccccc43)=CC[C@@H]12 [Galeterone, galeterone, reference compound] | – | – | 10 ± 0.9 | 5.3 ± 0.4 | 2.1 ± 0.1 | 5 ± 1.3 | 3.9 ± 1.3 | – | – | – | 2.7 ± 0.2 | – | –
0.0015 ± 0.0005 | CC(=O)O[C@H]1C(=O)[C@@]2(C)[C@H]([C@H](OC(=O)c3ccccc3)[C@]3(O)C[C@H](OC(=O)[C@H](O)[C@@H](NC(=O)c4ccccc4)c4ccccc4)C(C)=C1C3(C)C)[C@]1(OC(C)=O)CO[C@@H]1C[C@@H]2O [PTX, Paclitaxel, reference compound] | – | – | – | – | – | – | – | 0.196 ± 0.053 | 2.6 | 128 | – | – | –
0.0009 ± 0.0003 | CC[C@]1(O)C[C@@H]2CN(CCc3c([nH]c4ccccc34)[C@@](C(=O)OC)(c3cc4c(cc3OC)N(C)[C@H]3[C@@](O)(C(=O)OC)[C@H](OC(C)=O)[C@]5(CC)C=CCN6CC[C@]43[C@@H]65)C2)C1 [VB, vinblastine, reference compound] | – | – | – | – | – | – | – | 2.05 ± 0.682 | 1.3 | 2388 | – | – | –
